Assay results: paper PMC12079475, “Identification, validation, and characterization of approved and investigational drugs interfering with the SARS‐CoV‐2 endoribonuclease Nsp15” (Protein Science : A Publication of the Protein Society, 2025)
Where two headings read alike, the source gives them in different places.

Assays:
SARS‐CoV‐2 Nsp15 [1] = target: T1, SARS‐CoV‐2 Nsp15 (Severe acute respiratory syndrome coronavirus 2, UniProt P0DTD1); experiment: biochemical
SARS‐CoV Nsp15 = conditions: previously reported; ref Ortiz‐Alcantara et al., 2010; read-out: inhibition potency of SARS‐CoV Nsp15; cited from earlier work
[2] = Readout interference test: compound added after the enzymatic reaction ran to completion; conditions: normalized to the DMSO control; compound added after 1 h Nsp15/substrate reaction
SARS‐CoV‐2 Nsp15 [3] = target: T1, SARS‐CoV‐2 Nsp15; experiment: biochemical; assay type: biochemical; conditions: for inhibition at 10 µM: read-out: Inhibition % +L-Cys 10 µM
Nsp15 [4] = target: T2, Nsp15 (Severe acute respiratory syndrome coronavirus 2, UniProt P0DTD1); conditions: measured particle size
Nsp15 [5] = target: T2, Nsp15
[6] = system: SARS‐CoV‐2 in Vero‐E6 cells; set-up: method as in Zaliani et al., 2022; conditions: ref Zaliani et al., 2022, read-out: EC50 cytopathic (CPE) assay; cited from earlier work
Vero‐E6 cells = conditions: cited from earlier work
[7] = set-up: method as in Zhao et al., 2021; conditions: ref Zhao et al., 2021; cited from earlier work
[8] = DTT buffer, 30 min pre-incubation, read-out: IC50
[9] = 1 mM DTT buffer, confidence interval in brackets, read-out: IC50 + DTT (μM) (CI in μM)
[10] = DTT buffer (Table S1), read-out: IC50 +DTT
[11] = 1 mM L-cysteine buffer, confidence interval in brackets, read-out: IC50 + L‐Cys (μM) (CI in μM)
[12] = hit confirmation, 10 µM, DTT buffer, read-out: HC inhibition % +DTT 10 µM
[13] = primary screen, 10 µM (Table S1), read-out: PS Inhibition % 10 µM
[14] = primary screen, 10 μM compound, 1 mM DTT buffer, normalized to 50 μM Congo red (100%) and DMSO (0%), read-out: PS inhibition % 10 μM (single point measurement)

Structure (SMILES) | IC50 (SARS‐CoV‐2 Nsp15 [1]; [8]) | IC50 (SARS‐CoV‐2 Nsp15 [1]; [9]) | IC50 (SARS‐CoV‐2 Nsp15 [1]; [10]) | IC50 (SARS‐CoV‐2 Nsp15 [3]; [11]) | ΔT m°C nDSF (Nsp15 [5]) | inhibition at 10 µM (SARS‐CoV‐2 Nsp15 [1]; [12]) | inhibition at 10 µM (SARS‐CoV‐2 Nsp15 [1]; [13]) | inhibition at 10 µM (SARS‐CoV‐2 Nsp15 [1]; [14]) | inhibition at 10 µM (SARS‐CoV‐2 Nsp15 [3]; 10 µM, L-cysteine buffer) | further results
Nc1c(/N=N/c2ccc(-c3ccc(/N=N/c4cc(S(=O)(=O)O)c5ccccc5c4N)cc3)cc2)cc(S(=O)(=O)O)c2ccccc12 [Congo red] | 7.5 µM |  |  |  |  |  |  |  |  | IC50 (SARS‐CoV Nsp15): 2500 nM
CC[n+]1c(-c2ccccc2)c2cc(N)ccc2c2ccc(N)cc21 [Homidium bromide] |  |  |  |  |  |  |  |  |  | quenching ratio of the fluorescence signal [2]: 26.13%
CC[N+](C)(CC)CCC[n+]1c(-c2ccccc2)c2cc(N)ccc2c2ccc(N)cc21.[I-].[I-] [Propidium‐iodide] |  | 0.9 µM | 0.95 µM | 9 µM | 0.7 °C |  |  |  |  | HC inhibition % +DTT 10 µM (SARS‐CoV‐2 Nsp15 [1]; hit confirmation, 10 µM, DTT buffer): 85,94%; PS Inhibition % 10 µM (SARS‐CoV‐2 Nsp15 [1]; primary screen, 10 µM (Table S1)): 83,07%; PS inhibition % 10 μM (single point measurement) (SARS‐CoV‐2 Nsp15 [1]; primary screen, 10 μM compound, 1 mM DTT buffer, normalized to 50 μM Congo red (100%) and DMSO (0%)): 83.1%; Inhibition % +L-Cys 10 µM (SARS‐CoV‐2 Nsp15 [3]; 10 µM, L-cysteine buffer): 68,98%; effect on the hexameric Nsp15 structure (DLS) (Nsp15 [4]): significantly affected the hexameric Nsp15 structure
COc1cc2c(NC3CCN(C4CCCCC4)CC3)nc(N3CCCN(C(C)C)CC3)nc2cc1OCCCN1CCCCC1 [UNC0646] | 1.36 µM | 1.4 µM |  | 0.7 µM | 0 °C | 83.2% | 75.3% | 75.3% | 91.3% | IC50 (SARS‐CoV‐2 Nsp15 [3]; L‐cysteine buffer, read-out: IC50): 0.73 µM; EC50 [6]: 35400 nM; CC50 (Vero‐E6 cells): 18600 nM
COCCn1c2c([n+](Cc3cnccn3)c1C)C(=O)c1ccccc1C2=O [YM‐155] |  | 1.2 µM | 1.23 µM |  | 0.1 °C | 79.7% | 74% | 74% | 12.4% | loss of the inhibition potency in L‐cysteine buffer (SARS‐CoV‐2 Nsp15 [3]; 1 mM L‐cysteine buffer compared with DTT buffer): more than 50%; cytotoxicity in cell‐based assays [7]: no cytotoxicity at tested concentrations
